Measured values from US10980808B2, “Calmodulin inhibitors, Chk2 inhibitors and RSK inhibitors for the treatment of ribosomal disorders and ribosomapathies” (THE CHILDREN'S MEDICAL CENTER CORPORATION, priority 2016, dated 2021).
Entries after “also recorded” stand apart in the source; their conditions may differ. Counter-ions that a name gives are not always drawn.

Legend:
Raf = conditions: upstream kinase; cited from earlier work
MEK = conditions: upstream kinase; cited from earlier work
PKC = conditions: upstream kinase; cited from earlier work
[1] = tested on: rps29−/− zebrafish embryos; assay: hemoglobin (benzidine staining) rescue in rps29-/- zebrafish embryos; format: in vivo; conditions: benzidine staining
[2] = tested on: p70S6K and RPS6 phosphorylation in cells; assay: phosphorylation after calcium chelation in cells; format: cell-based; conditions: chelating calcium in cells
Description: (§1) We hypothesize that the CaM inhibition is indirect, CaM is needed for calcium signaling. […] RSK inhibitor: SL and B1. P70s6K inhibitor: PF. In Summary we show: 1) CaM and Chk2 inhibitors reduce S392 phosphorylation of p53—to a much greater extent during ribosomal protein deficiency 2) CaM and Chk2 inhibitors also decrease P-p70S6K to a much greater extent during RP deficiency 3) p70S6K can directly phosphorylate p53 S392 in vitro 4) Total protein levels of RSK, p70S6K and rps6 are increased ruing RP deficiency in vitro and in vivo 5) RSK2 is increased in our microarray in […] vs WT 24 hpf embryos. Protein validates this upregulation 6) Calcium levels are increased during RP deficiency 7) Blocking the CaM-Calcium signaling (CaM inhibitors) or directly inhibiting RSK or p70S6K (Chk2 inhibitors) leads to a decrease in P-p53 and p53 activity. Reduced p53 activity leads to fewer RBCs undergoing apoptosis, alleviating the anemia.

[3] = tested on: calcium in lysates of RPS19 knocked down cells; assay: colorimetric calcium detection in cellular lysates; format: cell-based
Description: as §1

RSK4 = RSK4 (Homo sapiens, UniProt Q9UK32); conditions: in vitro; cited from earlier work
Chain of RSK4 (Q9UK32 whole entry): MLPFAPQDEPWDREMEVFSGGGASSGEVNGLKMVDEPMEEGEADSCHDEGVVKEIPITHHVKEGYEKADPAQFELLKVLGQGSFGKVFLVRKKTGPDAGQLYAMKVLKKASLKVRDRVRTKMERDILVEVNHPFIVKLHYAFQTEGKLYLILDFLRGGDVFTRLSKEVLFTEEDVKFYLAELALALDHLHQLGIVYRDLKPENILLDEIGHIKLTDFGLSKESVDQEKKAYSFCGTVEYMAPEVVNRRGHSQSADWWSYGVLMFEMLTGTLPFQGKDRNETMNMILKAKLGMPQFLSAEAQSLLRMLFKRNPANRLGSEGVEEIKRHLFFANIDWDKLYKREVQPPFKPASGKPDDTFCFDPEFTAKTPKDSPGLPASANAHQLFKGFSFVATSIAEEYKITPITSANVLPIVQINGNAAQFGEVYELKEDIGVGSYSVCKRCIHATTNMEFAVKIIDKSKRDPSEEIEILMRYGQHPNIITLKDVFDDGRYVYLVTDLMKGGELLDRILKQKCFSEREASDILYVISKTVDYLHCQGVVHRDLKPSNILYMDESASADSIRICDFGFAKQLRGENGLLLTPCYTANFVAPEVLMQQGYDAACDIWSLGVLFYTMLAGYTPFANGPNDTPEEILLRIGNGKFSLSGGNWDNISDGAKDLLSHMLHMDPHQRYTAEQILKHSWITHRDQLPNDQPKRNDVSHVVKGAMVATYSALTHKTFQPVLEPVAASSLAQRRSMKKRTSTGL

RSK1 = RSK1 (Homo sapiens, UniProt Q15418); conditions: in vitro; cited from earlier work
Chain of RSK1 (Q15418 whole entry): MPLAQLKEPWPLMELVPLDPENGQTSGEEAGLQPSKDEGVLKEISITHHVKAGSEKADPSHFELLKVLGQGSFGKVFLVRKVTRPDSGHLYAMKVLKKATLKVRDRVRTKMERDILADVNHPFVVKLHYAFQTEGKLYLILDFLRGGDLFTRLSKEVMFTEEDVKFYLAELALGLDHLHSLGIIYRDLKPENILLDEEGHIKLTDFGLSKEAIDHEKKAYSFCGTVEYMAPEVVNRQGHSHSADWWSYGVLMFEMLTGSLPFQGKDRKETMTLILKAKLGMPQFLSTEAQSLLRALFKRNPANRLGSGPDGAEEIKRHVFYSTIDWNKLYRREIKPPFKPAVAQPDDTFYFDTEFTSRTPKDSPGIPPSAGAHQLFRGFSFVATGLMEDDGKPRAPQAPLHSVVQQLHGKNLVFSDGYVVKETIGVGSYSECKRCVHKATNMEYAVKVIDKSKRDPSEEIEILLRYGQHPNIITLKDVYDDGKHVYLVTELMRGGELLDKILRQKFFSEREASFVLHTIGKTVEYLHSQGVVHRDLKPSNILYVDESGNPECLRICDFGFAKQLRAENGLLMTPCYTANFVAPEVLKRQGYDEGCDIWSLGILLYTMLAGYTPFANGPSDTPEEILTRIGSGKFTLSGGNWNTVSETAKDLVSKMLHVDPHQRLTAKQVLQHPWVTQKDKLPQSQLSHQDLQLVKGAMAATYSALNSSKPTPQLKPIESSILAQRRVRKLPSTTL

RSK3 = RSK3 (Homo sapiens, UniProt Q15349); conditions: in vitro; cited from earlier work
Chain of RSK3 (Q15349 whole entry): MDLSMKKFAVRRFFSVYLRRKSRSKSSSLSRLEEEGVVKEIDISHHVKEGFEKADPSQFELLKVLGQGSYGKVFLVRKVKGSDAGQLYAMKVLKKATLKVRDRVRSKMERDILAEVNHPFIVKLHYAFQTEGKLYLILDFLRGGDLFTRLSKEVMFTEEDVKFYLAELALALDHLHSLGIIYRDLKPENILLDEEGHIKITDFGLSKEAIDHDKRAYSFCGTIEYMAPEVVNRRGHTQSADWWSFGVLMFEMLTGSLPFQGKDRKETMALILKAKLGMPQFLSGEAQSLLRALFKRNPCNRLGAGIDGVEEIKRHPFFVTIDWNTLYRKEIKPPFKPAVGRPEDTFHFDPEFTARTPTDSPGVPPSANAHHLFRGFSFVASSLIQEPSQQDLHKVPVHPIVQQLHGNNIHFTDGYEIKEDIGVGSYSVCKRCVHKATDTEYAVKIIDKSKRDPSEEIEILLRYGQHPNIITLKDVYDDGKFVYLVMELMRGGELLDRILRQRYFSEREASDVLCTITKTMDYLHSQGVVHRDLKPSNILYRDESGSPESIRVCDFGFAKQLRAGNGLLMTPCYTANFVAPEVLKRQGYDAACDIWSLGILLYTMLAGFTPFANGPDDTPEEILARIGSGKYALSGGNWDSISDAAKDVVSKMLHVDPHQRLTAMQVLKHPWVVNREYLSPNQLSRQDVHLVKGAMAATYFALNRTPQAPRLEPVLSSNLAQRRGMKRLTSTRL

RSK2 = RSK2 (Homo sapiens, UniProt P51812); conditions: in vitro; cited from earlier work
Chain of RSK2 (P51812 whole entry): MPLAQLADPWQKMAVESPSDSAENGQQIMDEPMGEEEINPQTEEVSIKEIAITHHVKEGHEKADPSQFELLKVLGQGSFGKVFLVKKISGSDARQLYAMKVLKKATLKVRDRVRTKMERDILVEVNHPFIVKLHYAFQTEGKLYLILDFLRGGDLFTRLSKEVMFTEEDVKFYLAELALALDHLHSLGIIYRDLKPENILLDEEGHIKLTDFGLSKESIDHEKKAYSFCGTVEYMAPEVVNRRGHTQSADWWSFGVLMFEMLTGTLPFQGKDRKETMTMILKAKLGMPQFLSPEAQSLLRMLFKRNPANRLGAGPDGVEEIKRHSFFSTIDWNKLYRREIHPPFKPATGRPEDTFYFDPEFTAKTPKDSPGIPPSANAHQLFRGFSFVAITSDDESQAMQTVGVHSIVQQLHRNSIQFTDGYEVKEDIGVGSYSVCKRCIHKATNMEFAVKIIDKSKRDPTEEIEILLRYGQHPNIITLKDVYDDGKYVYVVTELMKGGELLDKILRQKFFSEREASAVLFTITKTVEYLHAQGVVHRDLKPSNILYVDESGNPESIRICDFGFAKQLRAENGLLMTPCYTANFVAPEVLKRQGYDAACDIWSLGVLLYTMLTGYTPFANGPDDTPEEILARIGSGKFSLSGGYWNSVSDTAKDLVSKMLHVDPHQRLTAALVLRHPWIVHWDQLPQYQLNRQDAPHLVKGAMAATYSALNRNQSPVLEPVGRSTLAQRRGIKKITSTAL

p70S6K = p70S6K (Homo sapiens, UniProt P23443); assay: in vitro kinase profiling (Thermo Fisher SelectScreen), p70S6K; format: biochemical
Chain of p70S6K (P23443 whole entry): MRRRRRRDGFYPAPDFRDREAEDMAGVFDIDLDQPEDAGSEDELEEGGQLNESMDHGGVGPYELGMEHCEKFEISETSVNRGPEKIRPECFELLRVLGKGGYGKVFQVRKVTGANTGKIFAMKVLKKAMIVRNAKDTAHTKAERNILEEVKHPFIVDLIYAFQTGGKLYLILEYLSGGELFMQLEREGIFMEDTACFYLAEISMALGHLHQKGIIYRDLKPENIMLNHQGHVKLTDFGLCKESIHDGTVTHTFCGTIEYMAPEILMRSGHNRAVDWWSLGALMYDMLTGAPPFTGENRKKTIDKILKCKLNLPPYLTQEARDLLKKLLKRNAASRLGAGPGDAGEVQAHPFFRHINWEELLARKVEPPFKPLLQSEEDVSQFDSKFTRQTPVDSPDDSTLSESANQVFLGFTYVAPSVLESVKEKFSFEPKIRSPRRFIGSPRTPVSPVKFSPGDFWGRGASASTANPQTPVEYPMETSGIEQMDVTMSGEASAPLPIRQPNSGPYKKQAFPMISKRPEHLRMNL
Description: We asked if CaM and Chk2 inhibitors are blocking specific kinases. The known kinases that phosphorylate S392 are CK2 and p38. […] Thus, the question became what is TFP inhibiting upstream? Is it inhibiting a kinase that phosphorylates S392? We submitted CaM and Chk2 inhibitors for Kinase profiling using Thermo Fisher's SelectScreen.

[4] = tested on: Chk2 activation in HT29 cells; conditions: cited from earlier work
mouse thymocytes = conditions: cited from earlier work
Rps19 deficient mice = assay: DBA dox-inducible RPS19 knockdown mouse model; format: in vivo; conditions: treated every other day for 2 weeks
p53 in Saos2 cells = assay: p53 activity in Saos2 cells transfected with p53 constructs (qPCR); format: cell-based
Protocol: FIG. 9A a schematic of wild type P53 and deleted regulatory region p53 (p53 reg). FIG. 9[…] of procedure. Saos2 cells (p53-null cells) transiently transfected with p53 constructs and were treated with vehicle or 20 μM TFP for 24 hours. TFP activity on p53 was assessed by the ability of TFP to reduce p21 mRNA levels measured by qPCR. FIG. 9C is a graph of p21 RNA expression. Since our compound decreases p53 activity, we wanted to determine the region of p53 is responsible for CaM inhibitor activity. […] Next, the c-terminal 30 amino acids from p53 (363-393) were removed. This construct is p53-reg. […] FIGS. 11A to 11C are schematics and graphs which indicate that p53 S392 phhosphomimetic prevents TFP from reducing p53 activity. To confirm the importance of the ability of CaM inhibitors to block the phosphorylation of p53, we created phosphomimetic p53 by replacing […], which mimics constitutive phosphorylation. We also generated a control phosphomimetic p53 where […]. This mutant should have no effect on the ability of TFP to reduce p53 activity. FIG. 11A is a schematic of experiment used to test these mutants, we transiently transfected, WT p53, […] and […] into Saos2 cells and treated them with vehicle or TFP. To assess p53 activity, we examined p21 and MDM2 mRNA levels. FIG. 11B is a graph of p21 Expression. FIG. 11C is a graph of MDM2 mRNA expression. […] Confirming that blocking the S392 phosphorylation is important for the activity of TFP.

[5] = tested on: 293T cells with RPS19 shRNA; assay: phosphorylation in 293T cells with RPS19 shRNA; format: cell-based, human
Description: FIGS. 17A to 17C are scehmatics and gels that indicate CaM and Chk2 inhibitors block phosphorylation of p70S6K selectively during RP deficiency. FIG. 17A schematic, we used 293T cells, and induced ribosomal protein deficiency using shRNA for RPS19 or Luc for control. […] ERK phosphorylation is increased by these inhibitors, which is also seen with RSK inhibitors. FIG. 17C a gel of the effect of Luc and […] shRNA on phosphorylated S392. […] RSK inhibitors increase ERK phosphorylation through a negative feedback loop. So TFP and BML similarly affect ERK in the same manner.

[6] = tested on: p53 phosphorylation in 293T cells; assay: mass spectrometry of p53 post-translational modifications in 293T cells; format: cell-based; conditions: 3 hours
Protocol: FIGS. 10A to 10C show schematics, graphs and gels that indicate CaM and Chk2 inhibitors reduce S392 phosphorylation. FIG. 10A is a schematic of conserved regulatory region phosphorylation sites. FIG. 10B are graphs of an unbiased mass spectrometry analysis looking for post-translational modifications of p53 altered in the presence of the CaM inhibitor TFP or the Chk2 inhibitor, BML. 293T cells were transfected with WT-p53 tagged with GFP and treated with TFP or BML for 3 hours. P53 was immunoprecipitated using an antibody against GFP and was submitted for mass spec analysis. […] By two different mass spec methods, either conventional mass spec or by TMT tagging of the peptide we found in both cases the percentage of peptides containing phosphorylated serine 392 was reduced in TFP and BML treated samples (FIG. 10B). It was also noted that this serine is conserved in both zebrafish and mouse (FIG. 10A). FIG. 10C is a Western Blot that indicates phosphorylation decrease.

[7] = tested on: RPS19 deficient cord blood derived CD34+ cells; assay: human in vitro model of DBA: cord blood CD34+ cells with RPS19 shRNA, erythroid differentiation; format: cell-based
[8] = tested on: RPS19 deficient CD34 cells; assay: phosphorylation in RPS19 deficient CD34 cells; format: cell-based, human
Description: FIG. 18 is a schematic of the assay of RSK activation in human cells. The most relevant in vitro model in the blood field is primary human cells-such as Peripheral blood mononuclear cells (PBMCs). […] FIG. 19B schematic ov RP deficiency. TFP treatment reduces P-RPS6 and P-p53 […] and p53 total levels.

[9] = tested on: rps29−/− zebrafish embryos; conditions: previously demonstrated; cited from earlier work
[10] = Saos2 cells with WT p53 or S15D p53

## 3-[(3,4-Di-O-acetyl-6-deoxy-α-L-mannopyranosyl)oxy]-5,7-dihydro-2-(4-hydroxyphenyl)-4H-1benzopyran-4-one [SL]
Raf
  inhibition of Raf: Does not inhibit
MEK
  inhibition of MEK: Does not inhibit
PKC
  inhibition of PKC: Does not inhibit
[1]
  hemoglobin (Hb) in rps29−/− embryos: increase Hb

## CC(=O)OCOC(=O)CN(CC(=O)OCOC(C)=O)c1ccccc1OCCOc1ccccc1N(CC(=O)OCOC(C)=O)CC(=O)OCOC(C)=O [BAPTA-AM]
[2]
  RPS6 phosphorylation: reduces
  p70S6K phosphorylation: reduces
[3]
  calcium levels in cellular lysates: reduce the calcium levels

## CC(C)CCC1c2nc(Nc3cc(F)c(O)c(F)c3)ncc2N(C)C(=O)C1C (centres unmarked) [BI-D1870]
RSK4
  IC50: 15 nM
RSK1
  IC50: 31 nM
RSK3
  IC50: 18 nM
RSK2
  IC50: 24 nM

## COc1cc2nc(-c3cc(F)ccc3O)nc(NC3CNC[C@H]3C(C)(C)O)c2cc1OC (some centres unmarked) [CCT, CCT 241533 dihydrochloride]
p70S6K
  percent inhibition of in vitro kinase activity, p70S6K: inhibition
[4]
  Chk2 activation in response to etoposide-induced DNA damage: inhibits
Mouse thymocytes
  ionizing radiation-induced apoptosis: blocks
[1]; dihydrochloride
  hemoglobin (Hb) in rps29−/− embryos: rescue Hb

## CN1CCN(CCCN2c3ccccc3Sc3ccc(C(F)(F)F)cc32)CC1 [TFP, trifluoperazine]
Rps19 deficient mice
  hemoglobin levels: significantly increases
  p21 mRNA levels (p53 activity) in bone marrow: reduced; also recorded: decreases
  red blood cell number: significantly increases
p53 in Saos2 cells
  ability of p53 to form a tetramer: did not inhibit
p53 in Saos2 cells; [10]
  MDM2 mRNA levels: able to reduce
  p21 mRNA levels: able to reduce
p53 in Saos2 cells; Saos2 cells with p53 S392D
  MDM2 mRNA levels: unable to reduce
  p21 mRNA levels: unable to reduce
[5]
  ERK phosphorylation: increased
[5]; during ribosomal protein deficiency
  phosphorylation of p70S6K: selectively inhibited
[6]
  percentage of peptides containing phosphorylated Serine 6 of p53: did not change
  percentage of peptides containing phosphorylated Serine 315 of p53: did not change
[6]; WT-p53-GFP
  percentage of peptides containing phosphorylated serine 392 of p53: reduced
[7]
  % erythroid precursor cells (CD71+) on day 12: increases
  p21 mRNA levels: dose dependently decreases
[8]
  P-RPS6: reduces
  P-p53 S392: reduces
  p53 total levels: reduces
[1]
  hemoglobin (Hb) in rps29−/− embryos: rescue Hb

## NCCCCCCNS(=O)(=O)c1cccc2ccccc12 [W-5]
[9]
  rescue of the vasculature defect: rescue the vasculature defect
